For test [1], the target named is T1, BRAF V600E (Homo sapiens, UniProt P15056, V600E). Nature of the test: […]-labeled acetoacetate radiometric binding to purified bead-bound BRAF.
The target of test [2] is T2, BRAF V600R (Homo sapiens, UniProt P15056, V600R). Described as above.
For test [3], the target named is T3, BRAF V600D (Homo sapiens, UniProt P15056, V600D). The description is as above.
Test [4] concerns the target T1, BRAF V600E. Nature of the test: […]-acetoacetate competition binding.
For test [5], the target named is T2, BRAF V600R. As to the kind of experiment: […]-acetoacetate competition binding.
The target of test [6] is T3, BRAF V600D. As to the kind of experiment: […]-acetoacetate competition binding.

T2 sequence (P15056 whole entry V600R): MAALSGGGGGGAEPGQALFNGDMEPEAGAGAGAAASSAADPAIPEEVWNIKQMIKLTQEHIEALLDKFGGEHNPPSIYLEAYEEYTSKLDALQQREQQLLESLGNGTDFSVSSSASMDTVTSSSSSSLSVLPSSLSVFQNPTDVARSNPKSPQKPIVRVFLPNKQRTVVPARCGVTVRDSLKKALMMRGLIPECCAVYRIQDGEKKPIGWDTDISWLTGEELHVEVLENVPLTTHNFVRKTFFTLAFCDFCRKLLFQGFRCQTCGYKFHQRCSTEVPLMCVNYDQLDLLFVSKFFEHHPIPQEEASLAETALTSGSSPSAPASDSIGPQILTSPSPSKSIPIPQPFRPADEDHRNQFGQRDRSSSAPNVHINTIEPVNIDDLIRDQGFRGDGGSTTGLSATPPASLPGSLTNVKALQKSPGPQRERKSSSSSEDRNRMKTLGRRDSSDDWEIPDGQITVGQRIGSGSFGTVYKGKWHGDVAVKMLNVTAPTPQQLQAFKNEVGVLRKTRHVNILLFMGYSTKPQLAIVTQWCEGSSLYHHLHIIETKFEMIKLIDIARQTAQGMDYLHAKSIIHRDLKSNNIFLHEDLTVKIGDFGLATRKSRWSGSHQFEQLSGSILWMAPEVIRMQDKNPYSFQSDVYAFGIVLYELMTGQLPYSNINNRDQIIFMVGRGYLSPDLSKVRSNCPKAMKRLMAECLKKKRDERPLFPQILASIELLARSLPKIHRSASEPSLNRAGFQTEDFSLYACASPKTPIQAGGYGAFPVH
T3 sequence (P15056 whole entry V600D): as the sequence (P15056 whole entry V600R) above, with R600D counted along it
T1 sequence (P15056 2-766 V600E): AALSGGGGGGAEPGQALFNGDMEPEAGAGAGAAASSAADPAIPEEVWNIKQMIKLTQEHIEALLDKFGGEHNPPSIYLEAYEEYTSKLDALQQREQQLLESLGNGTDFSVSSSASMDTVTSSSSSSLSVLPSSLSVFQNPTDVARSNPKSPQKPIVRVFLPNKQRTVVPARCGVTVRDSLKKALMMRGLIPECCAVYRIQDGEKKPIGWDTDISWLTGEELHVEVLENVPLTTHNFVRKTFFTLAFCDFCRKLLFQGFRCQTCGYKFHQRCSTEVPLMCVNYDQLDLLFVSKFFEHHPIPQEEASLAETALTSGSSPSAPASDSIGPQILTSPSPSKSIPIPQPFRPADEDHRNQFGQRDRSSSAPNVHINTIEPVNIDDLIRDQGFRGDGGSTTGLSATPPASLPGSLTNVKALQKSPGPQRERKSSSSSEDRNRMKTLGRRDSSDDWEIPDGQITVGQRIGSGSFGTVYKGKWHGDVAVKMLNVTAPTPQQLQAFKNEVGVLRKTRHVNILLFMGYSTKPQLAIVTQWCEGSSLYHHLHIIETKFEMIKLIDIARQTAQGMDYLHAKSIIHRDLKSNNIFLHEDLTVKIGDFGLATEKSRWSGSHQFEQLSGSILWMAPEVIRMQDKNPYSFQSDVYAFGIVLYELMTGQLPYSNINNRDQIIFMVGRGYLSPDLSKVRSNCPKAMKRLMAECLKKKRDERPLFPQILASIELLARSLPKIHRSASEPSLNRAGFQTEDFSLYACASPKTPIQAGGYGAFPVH

As usually defined, the Kd is the free concentration of one partner at which half of the binding sites on the other are occupied at equilibrium, for simple one-to-one binding. Turning to `CC(=O)CC(=O)O` [AA, acetoacetate], the results for the Kd on BRAF V600E [1], on BRAF V600R [2] and on BRAF V600D [3] were about 92 µM, about 113 µM and about 93 µM, respectively.
What is called Ki is a dissociation constant, usually derived from enzyme kinetics or from competition with a known ligand. Higher therefore signals a looser hold on the target. Take `CC(=O)C1C(=O)C=C(C)OC1=O` (stereo not drawn) [DHAA, dehydroacetic acid]: the figures for the inhibition constant (Ki) on BRAF V600E [4], on BRAF V600R [5] and at BRAF V600D [6] were about 88 µM, about 91 µM and about 88 µM, respectively.
